{"source": "patent EP0845210A1", "about": "“New herbicidal compositions” (RHONE-POULENC AGRICULTURE LTD., priority 1994, dated 1996)", "format_in_all_cases": "in vivo", "key": {"Abutilon theophrasti [1]": {"test_system": "Abutilon theophrasti", "experiment": "Procedure B: pre-emergence field trial (research farm in Brazil), visual assessment 36 or 40 days from sowing", "description": "(§1) The experiments were carried out pre-emergence of the weed species at • (i) a research farm in Brazil with Compounds B and C (each formulated as a wettable powder) and metolachlor, (formulated as a suspension concentrate); and • (ii) in research farms in the Mid West corn belt of the United States with compound D (formulated as a wettable powder) and metolachlor (formulated as a suspension concentrate).\n(§2) A solution of the two active ingredients (a.i.) was mixed for one hour and applied at a spray volume of 231 litres/hectare to a 3 metre by 5 metre test plot comprising the weed species which were sown 2 days earlier. 3 replicates were performed. A control plot was sprayed with a solution not containing test compound. Visual assessment of phytotoxicity was made after 36 or 40 days from sowing each weed species based on a comparison with the control plot.\n(§3) The tables below show the observed percentage control of the weed species by each combination, with the figure in brackets representing the predicted value using the Limpel formula. The dose rates are in grammes per hectare. Table E1"}, "Amaranthus retroflexus [2]": {"test_system": "Amaranthus retroflexus", "experiment": "Procedure B: pre-emergence field trial (Mid West corn belt research farms), visual assessment 36 or 40 days from sowing", "description": "as §1, §2, §3"}, "Setaria faberii": {"test_system": "Setaria faberii", "experiment": "Procedure B: pre-emergence field trial (Mid West corn belt research farms), visual assessment 36 or 40 days from sowing", "description": "as §1, §2, §3"}, "Digitaria sanguinalis": {"test_system": "Digitaria sanguinalis", "experiment": "Procedure A: pre-emergence glasshouse pot test, growth reduction assessed two weeks after treatment", "description": "(§4) Seed of the various species of broad-leaf or grass weeds were sown in unsterilised clay loam soil in 7 centimetre by 7 centimetre plastic plant pots. The pots were watered and allowed to drain. The soil surface was then sprayed with ranges of concentrations of either the individual herbicide or mixtures of two herbicides in various proportions, dissolved in a 50:50 by volume solution of acetone and water, using a track sprayer set to deliver the equivalent of 290 l/ha. All herbicides were used as unformulated technical materials except dimethenamid, which was used as the commercial formulation \"Frontiere\" (trade mark), a flowable containing 900g/l active ingredient; and alachlor, which was used as \"Lasso\" (trade mark), an emulsifiable concentrate formulation containing 480g/l active ingredient.\n(§5) Treated pots were placed at random in four replicate blocks per treatment for each plant species. The pots were held, in a glasshouse, standing on moist capillary matting, under lights and with overhead watering twice daily.\n(§6) Two weeks after treatment the percent reduction in plant growth, compared to an untreated control, was assessed.\n(§7) Mean percent reduction in plant growth was calculated for each treatment. Dose/mean response was plotted on Log concentration/Probability graph paper, and lines fitted by eye. For herbicide mixtures a dose/response line for the first herbicide was drawn for each dose rate of the second herbicide and a dose/response line for the second herbicide was drawn for each dose rate of the first herbicide. The doses representing a 90% reduction in plant growth (LD90's) were read from these lines and plotted on graphs whose axes were dose rates of the two herbicides. The line joining these points is an Isobole i.e. a line joining points (mixtures) of equal activity, as described by P.M.L. Tammes, Neth. J. Plant Path. 70 (1964) : 73-80. A line was also drawn joining the LD90's of the individual components of the mixture. This line represents the theoretical isobole if the effect of the two components is additive i.e. there is no interaction between them. Isoboles falling below this line indicate synergy between the components while lines lying above it indicate antagonism.\n(§8) In the tables that follow 'dose' represents the dose rate in grammes per hectare of the active ingredient used; and the figures for the weed control are percentages reduction in growth when compared with the untreated controls."}, "Echinochloa crus-galli": {"test_system": "Echinochloa crus-galli", "experiment": "Procedure A: pre-emergence glasshouse pot test, growth reduction assessed two weeks after treatment", "description": "as §4, §5, §6, §7, §8"}, "Abutilon theophrasti [3]": {"test_system": "Abutilon theophrasti", "experiment": "Procedure D: pre-emergence field trial (Volga, Brookings), visual assessment about 26 days after treatment", "description": "(§9) The following experiments were carried out pre-emergence of the weed species. Compound A, formulated as a wettable dispersible granule as described in Example 1 herebelow (750g per kilogram) and each acetochlor (used as the commercially available formulation \"Harness\" (trade mark), an emulsifiable concentrate containing 960g of acetochlor per kilogram, and which also contains the safening agent flurazole, metolachlor (used as the commercially available formulation \"Duelor\" (trade mark), an emulsifiable concentrate emulsifiable concentrate containing 960g of metolachlor per kilogram), alachlor (used as the commercially available formulation \"Lasso\" (trade mark), an emulsifiable concentrate containing 480g of alachlor per kilogram) and dimethenamid (used as the commercially available formulation \"Frontiere\" (trade mark), a flowable containing 900g/l active ingerident) were dissolved in water and sprayed at a volume rate of 187 litres/hectare on various test plots (10 square meters in area) either alone or in mixtures. The soil was a clay-loam, with a pH of 7, the experiments being conducted in June in Volga, Brookings, U.S.A. The various weed and crop species were drill sown and the various compositions were applied on the same day after drilling. Three replicates were performed and the efficacy of the various mixtures were determined by visual assessment of the percentage phytotoxicity in comparison with an untreated control. Assessment was made about 26 days after treatment. In the Tables which follow the dose is expressed in grammes per hectare and the figures in brackets represent the expected results according to the Colby formula."}, "Helianthus annuus": {"test_system": "Helianthus annuus", "experiment": "Procedure D: pre-emergence field trial (Volga, Brookings), visual assessment about 26 days after treatment", "description": "as §9"}, "Panicum miliaceum": {"test_system": "Panicum miliaceum", "experiment": "Procedure D: pre-emergence field trial (Volga, Brookings), visual assessment about 26 days after treatment", "description": "as §9"}, "maize (Zea mays)": {"test_system": "maize (Zea mays)", "experiment": "Procedure D: pre-emergence field trial (Volga, Brookings), crop phytotoxicity about 26 days after treatment", "description": "as §9"}, "Amaranthus retroflexus [4]": {"test_system": "Amaranthus retroflexus", "experiment": "Procedure A: pre-emergence glasshouse pot test, growth reduction assessed two weeks after treatment", "description": "as §4, §5, §6, §7, §8"}, "Setaria viridis": {"test_system": "Setaria viridis", "experiment": "Procedure A: pre-emergence glasshouse pot test, growth reduction assessed two weeks after treatment", "description": "as §4, §5, §6, §7, §8"}, "[5]": {"conditions": "D 37.5 g/ha alone, 1st Research Farm"}, "[6]": {"conditions": "D 37.5 g/ha alone, 2nd Research Farm"}, "[7]": {"conditions": "D 37.5 g/ha alone, 3rd Research Farm"}, "[8]": {"conditions": "metolachlor 480 g/ha alone, 1st Research Farm"}, "[9]": {"conditions": "metolachlor 480 g/ha alone, 2nd Research Farm"}, "[10]": {"conditions": "metolachlor 480 g/ha alone, 3rd Research Farm"}}, "data": [{"smiles": "CS(=O)(=O)c1ccc(C(=O)c2cnoc2C2CC2)c(Cl)c1", "note": "[Compound C, 4-(2-chloro-4-methylsulphonyl)benzoyl-5-cyclopropylisoxazole]", "values": [{"measurement": "observed percentage control of the weed species", "setting": "Abutilon theophrasti [1]; C 50 g/ha alone", "result": 73, "unit": "%"}]}, {"smiles": "CS(=O)(=O)c1cc(Cl)ccc1C(=O)c1cnoc1C1CC1", "note": "[Compound D, 4-(4-chlor-2-methylsulphonyl)benzoyl-5-cyclopropylisoxazole]", "values": [{"measurement": "observed percentage control of the weed species", "setting": "Amaranthus retroflexus [2]; [5]", "result": 38, "unit": "%"}, {"measurement": "observed percentage control of the weed species", "setting": "Amaranthus retroflexus [2]; [6]", "result": 10, "unit": "%"}, {"measurement": "observed percentage control of the weed species", "setting": "Amaranthus retroflexus [2]; [7]", "result": 10, "unit": "%"}, {"measurement": "observed percentage control of the weed species", "setting": "Setaria faberii; [5]", "result": 22, "unit": "%"}, {"measurement": "observed percentage control of the weed species", "setting": "Setaria faberii; [6]", "result": 62, "unit": "%"}, {"measurement": "observed percentage control of the weed species", "setting": "Setaria faberii; [7]", "result": 32, "unit": "%"}]}, {"smiles": "COCC(C)N(C(=O)CCl)c1c(C)csc1C", "note": "(stereo not shown) [Dimethenamid, 2-chloro-N-(2,4-dimethyl-3-thienyl)-N-(2-methoxy-1-methyl)ethyl-acetamide, reference compound]", "values": [{"measurement": "percent reduction in plant growth", "setting": "Digitaria sanguinalis; dimethenamid 4 g/ha alone", "result": 16.25, "unit": "%"}, {"measurement": "percent reduction in plant growth", "setting": "Digitaria sanguinalis; dimethenamid 8 g/ha alone", "result": 15, "unit": "%"}, {"measurement": "percent reduction in plant growth", "setting": "Digitaria sanguinalis; dimethenamid 16 g/ha alone", "result": 77.5, "unit": "%"}, {"measurement": "percent reduction in plant growth", "setting": "Digitaria sanguinalis; dimethenamid 32 g/ha alone", "result": 89.75, "unit": "%"}, {"measurement": "percent reduction in plant growth", "setting": "Digitaria sanguinalis; dimethenamid 64 g/ha alone", "result": 98.25, "unit": "%"}, {"measurement": "percent reduction in plant growth", "setting": "Digitaria sanguinalis; dimethenamid 128 g/ha alone", "result": 92.5, "unit": "%"}, {"measurement": "percent reduction in plant growth", "setting": "Digitaria sanguinalis; dimethenamid 256 g/ha alone", "result": 98.75, "unit": "%"}, {"measurement": "percent reduction in plant growth", "setting": "Echinochloa crus-galli; dimethenamid 4 g/ha alone", "result": 17.5, "unit": "%"}, {"measurement": "percent reduction in plant growth", "setting": "Echinochloa crus-galli; dimethenamid 8 g/ha alone", "result": 38.75, "unit": "%"}, {"measurement": "percent reduction in plant growth", "setting": "Echinochloa crus-galli; dimethenamid 16 g/ha alone", "result": 81.25, "unit": "%"}, {"measurement": "percent reduction in plant growth", "setting": "Echinochloa crus-galli; dimethenamid 32 g/ha alone", "result": 93.5, "unit": "%"}, {"measurement": "percent reduction in plant growth", "setting": "Echinochloa crus-galli; dimethenamid 64 g/ha alone", "result": 97.5, "unit": "%"}, {"measurement": "percent reduction in plant growth", "setting": "Echinochloa crus-galli; dimethenamid 128 g/ha alone", "result": 100, "unit": "%"}, {"measurement": "percentage phytotoxicity", "setting": "Abutilon theophrasti [3]; dimethenamid 200 g/ha alone", "result": 12, "unit": "%"}, {"measurement": "percentage phytotoxicity", "setting": "Helianthus annuus; dimethenamid 200 g/ha alone", "result": 3, "unit": "%"}, {"measurement": "percentage phytotoxicity", "setting": "Panicum miliaceum; dimethenamid 200 g/ha alone", "result": 27, "unit": "%"}, {"measurement": "percentage phytotoxicity", "setting": "maize (Zea mays); dimethenamid 200 g/ha alone", "result": 0, "unit": "%"}]}, {"smiles": "CCc1cccc(C)c1N(C(=O)CCl)C(C)COC", "note": "(stereo not shown) [Metolachlor, 2-chloro-6'-ethyl-N-(2-methoxy-1-methylethyl)acet-o-toluidide, reference compound]", "values": [{"measurement": "percent reduction in plant growth", "setting": "Amaranthus retroflexus [4]; metolachlor 31.25 g/ha alone", "result": 46.25, "unit": "%"}, {"measurement": "percent reduction in plant growth", "setting": "Amaranthus retroflexus [4]; metolachlor 62.5 g/ha alone", "result": 53.75, "unit": "%"}, {"measurement": "percent reduction in plant growth", "setting": "Amaranthus retroflexus [4]; metolachlor 125 g/ha alone", "result": 35, "unit": "%"}, {"measurement": "percent reduction in plant growth", "setting": "Amaranthus retroflexus [4]; metolachlor 250 g/ha alone", "result": 85, "unit": "%"}, {"measurement": "percent reduction in plant growth", "setting": "Amaranthus retroflexus [4]; metolachlor 500 g/ha alone", "result": 95, "unit": "%"}, {"measurement": "percent reduction in plant growth", "setting": "Setaria viridis; metolachlor 2 g/ha alone", "result": 5, "unit": "%"}, {"measurement": "percent reduction in plant growth", "setting": "Setaria viridis; metolachlor 4 g/ha alone", "result": 22.5, "unit": "%"}, {"measurement": "percent reduction in plant growth", "setting": "Setaria viridis; metolachlor 8 g/ha alone", "result": 38.75, "unit": "%"}, {"measurement": "percent reduction in plant growth", "setting": "Setaria viridis; metolachlor 16 g/ha alone", "result": 61.25, "unit": "%"}, {"measurement": "percent reduction in plant growth", "setting": "Setaria viridis; metolachlor 32 g/ha alone", "result": 87.5, "unit": "%"}, {"measurement": "percent reduction in plant growth", "setting": "Setaria viridis; metolachlor 64 g/ha alone", "result": 98, "unit": "%"}, {"measurement": "observed percentage control of the weed species", "setting": "Abutilon theophrasti [1]; metolachlor 1000 g/ha alone", "result": 0, "unit": "%"}, {"measurement": "observed percentage control of the weed species", "setting": "Amaranthus retroflexus [2]; [8]", "result": 38, "unit": "%"}, {"measurement": "observed percentage control of the weed species", "setting": "Amaranthus retroflexus [2]; [9]", "result": 78, "unit": "%"}, {"measurement": "observed percentage control of the weed species", "setting": "Amaranthus retroflexus [2]; [10]", "result": 91, "unit": "%"}, {"measurement": "observed percentage control of the weed species", "setting": "Setaria faberii; [8]", "result": 91, "unit": "%"}, {"measurement": "observed percentage control of the weed species", "setting": "Setaria faberii; [9]", "result": 93, "unit": "%"}, {"measurement": "observed percentage control of the weed species", "setting": "Setaria faberii; [10]", "result": 84, "unit": "%"}, {"measurement": "percentage phytotoxicity", "setting": "Abutilon theophrasti [3]; metolachlor 480 g/ha alone", "result": 10, "unit": "%"}, {"measurement": "percentage phytotoxicity", "setting": "Helianthus annuus; metolachlor 480 g/ha alone", "result": 3, "unit": "%"}, {"measurement": "percentage phytotoxicity", "setting": "Panicum miliaceum; metolachlor 480 g/ha alone", "result": 52, "unit": "%"}, {"measurement": "percentage phytotoxicity", "setting": "maize (Zea mays); metolachlor 480 g/ha alone", "result": 0, "unit": "%"}]}]}
